Reference: patent publication US20190090458A1, “DEVICE FOR OBTAINING AGE/SIZE-MATCHED NEMATODES AND METHODS OF USE” (University of Alaska, Fairbanks, priority 2017, published 2019)

Legend:
C. elegans [1] = assay: Gentle touch response (anterior and posterior); assay type: in vivo; details: 100 μM FUDR in NGM; any day of testing (days 2, 4, 6, 8); p>0.4
Method: (§1) The three groups tested were separated by: 1) individual picking, wherein nematodes were selected and transferred manually using a platinum loop; 2) the chemical treatment fluorodeoxyuridine (FUDR), wherein 100 mg/mL FUDR was added to the NGM media to a final concentration of 100 μM to prevent any progeny production, and then the nematodes were transferred every other day to a fresh NGM plate to avoid food depletion; and, 3) the device of Example 1.
Response to mechanical stimulus is a physiological marker to assess aging or general health; thus, the impact of different transfer methods on both the anterior and the posterior gentle touch responses were tested. Responses to a gentle touch were compared between the three treatment groups, wherein the assay was performed based on the methods described by Calixto et al. Enhanced neuronal RNAi in C. elegans using SID-1. Nature Methods. 7 (7), 554-559 (2010). The anterior and posterior touch response was recorded by gently stroking an eyelash pick perpendicularly across the tail or the head (5× each, alternating head and tail) of the animals. Any movement in the opposite direction of the stroke was scored as 1 point on a scale of 0 to 5 for both the anterior and the posterior response. A statistical analysis with a one-way ANOVA with α=0.05 and Bonferroni post-tests with α=0.05 was conducted using the recorded scored.

C. elegans [2] = assay: Pharyngeal pump rate; assay type: in vivo; details: 100 μM FUDR in NGM; days 6 and 8 of adulthood; p<0.001
Method: as §1
The ability of C. elegans' pharyngeal muscles to pump declines with age and is another biomarker of healthspan. To determine if the present filter membrane device influenced the nematodes' pharyngeal pump rate, the three treatment groups were compared on days 2, 4, 6, and 8 of adulthood (n=8 to 10 per group). The grinder movement of the nematode's terminal pharyngeal bulb was visually counted under a stereomicroscope at a 600× final magnification for 1 minute, wherein a statistical analysis with a one-way ANOVA with α=0.05 and Bonferroni post-tests with α=0.05 was performed.

C. elegans [3] = assay: Motility assay (motility class scoring); assay type: in vivo; details: 100 μM FUDR in NGM; days 2, 4, 6 and 8 of adulthood; p>0.05
Method: as §1
In C. elegans the normal sinusoidal movement (i.e., motility) declines with age and is a marker of overall health. To determine if the present device influenced motility, motility scores were compared for pick, FUDR, and present filter membrane device treatment groups on days 2, 4, 6, and 8 of adulthood. The mobility assay was performed as disclosed by Hendon et al. Stochastic and genetic factors influence tissue-specific decline in ageing C. elegans. Nature. 419 (6909), 808-814 (2002). The nematodes were assigned a motility score and assigned to a class (A, B, or C). Class A individuals move spontaneously in a normal, sinusoidal pattern. Class B individuals move in markedly non-sinusoidal movements and may require prodding to encourage movement. Class C individuals move their head and/or tail in response to prodding but are unable to move across the agar.

sod-3::gfp = sod-3::gfp fluorescent reporter stress response assay; assay type: in vivo, C. elegans; details: 100 μM paraquat, positive control; strain CF1553; p<0.05
Method: Three commonly used fluorescent reporter assays were performed to detect potential markers of stress: a DAF-16::GFP translocation into the nuclei of cells in a strain [TJ356-zIs356 (pDAF-16::DAF-16-GFP;rol-6)]; an hsp-16.2 expression [TJ375-gpls 1 (hsp-16.2p::GFP)]; and a sod-3 expression [CF1553-muIs84([pAD76]sod-3p::GFP+rol-6[su1006])]. Henderson, S. T., Johnson, T. E. daf-16 integrates developmental and environmental inputs to mediate aging in the nematode Caenorhabditis elegans. Current Biology. 11 (24), 1975-1980 (2001); Rea, S. L., Wu, D., Cypser, J. R., Vaupel, J. W., Johnson, T. E. A stress-sensitive reporter predicts longevity in isogenic populations of Caenorhabditis elegans. Nature Genetics. 37 (8), 894-898 (2005); and, Libina, N., Berman, J. R., Kenyon, C. […]
At day 3 of adulthood, the nematodes were harvested with an eyelash pick and mounted to a coverslip with 1 μL of a 36% poloxamer 407 surfactant solution to immobilize the nematodes. […] Differences in the fluorescent localization between the three groups was recorded and results compared using an ordinal logistics statistical model in statistical analysis software (DAF-16::GFP assay) and for the hsp-16.2 and the sod-3 expression assays, a one-way ANOVA with α=0.05 and Tukey's post hoc tests with α=0.05 was used to compare the total fluorescence of the head region. […]

| SMILES | anterior and posterior gentle touch response compared with pick and device groups (C. elegans [1]) | pharyngeal pump rate, FUDR versus picking group (C. elegans [2]) | motility class distribution compared with pick and device groups (C. elegans [3]) | SOD-3 expression (sod-3::gfp fluorescence of head region) versus pick and device groups (sod-3::gfp) |
| --- | --- | --- | --- | --- |
| O=c1[nH]c(=O)n([C@H]2C[C@H](O)[C@@H](CO)O2)cc1F [FUDR, 5-fluorodeoxyuridine] | no statistically significant difference | significant difference | no difference |  |
| C[n+]1ccc(-c2cc[n+](C)cc2)cc1 [paraquat] |  |  |  | high expression of sod-3::gfp |
